From ChEMBL document CHEMBL1201862, “PubChem BioAssay data set” (2004)
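Grown in 96-well plates, cells were treated for 48 hours with each compound at five concentrations. Insufficient inhibition: endpoint recorded as highest concentration tested. GI50 = concentration required for 50% inhibition of growth.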 Activity calls are given as the source filed them. Cut-off read from the data, not from the text of the source: active = GI50 up to about 1.1 µM and inactive = higher.

How the values were obtained:
Test in all cases: DTP human tumour cell line panel, 48 h
DMS-273 = test system: DMS-273
LXFL 529 = test system: LXFL 529
RXF 631 = test system: RXF 631
SR = test system: SR
786-0 = test system: 786-0
HOP-18 = test system: HOP-18
XF498 = test system: XF498
BT-549 = test system: BT-549
DU-145 = test system: DU-145

Measured: GI50

COc1ccc(CCn2cncn2)cc1
inactive: DMS-273 > 100 µM | LXFL 529 > 100 µM | RXF 631 > 100 µM | SR > 100 µM

CCN(CC)c1cccc2c1/C(=N/O)CCCC2
inactive: 786-0 > 100 µM | DMS-273 > 100 µM | HOP-18 > 100 µM | LXFL 529 > 100 µM | SR > 100 µM | XF498 > 100 µM

CC1=CC(C)C(C)N(CC2=NCCN2)c2ccccc21 (stereo not given)
inactive: 786-0 83.2 µM | BT-549 > 100 µM | DU-145 > 69.5 µM | SR 26 µM

CC(=O)OCc1c(C)c2ccccc2n1C(C)=O
inactive: 786-0 > 100 µM | DMS-273 25.1 µM | HOP-18 27.7 µM | RXF 631 25.2 µM | SR 36.1 µM | XF498 26.5 µM

c1ccc(CNc2ncnc3nn[nH]c23)cc1
inactive: 786-0 > 100 µM | DU-145 > 100 µM

C=C1C(=O)OC2CC1CCC1(C)OC1CCC(C)=CCCC2(C)O (stereo not given)
inactive: DMS-273 3.1 µM | HOP-18 1.47 µM | XF498 3.73 µM

COc1cc2c(ccc3c4cc(OC)c(OC)cc4c[n+](C)c23)cc1O [FAGARONINE]
inactive: DMS-273 5.75 µM | HOP-18 > 75 µM | XF498 4.54 µM

C=CCCN1CCc2c([nH]c3ccccc23)C1C(=O)O (stereo not given)
inactive: DMS-273 > 100 µM | LXFL 529 > 100 µM | RXF 631 > 100 µM | SR > 100 µM | XF498 > 100 µM

Cn1c2ccc([N+](=O)[O-])cc2c(=O)n1Cc1ccccc1F
inactive: 786-0 49.5 µM | BT-549 > 100 µM | DU-145 51.2 µM | SR 59.8 µM

COC(=O)[C@H](Cc1ccccc1)NC(=O)N(CCNC(=O)OC(C)(C)C)c1ccccc1
inactive: 786-0 > 100 µM | BT-549 > 100 µM | DU-145 > 100 µM | SR > 100 µM

Cn1cc(-c2csc(-c3cn(C)c4ccccc34)n2)c2ccccc21
inactive: 786-0 17.2 µM | BT-549 56.4 µM | DU-145 42.9 µM

O=C1C=CC(=O)c2c(Cl)ccc(O)c21
inactive: DMS-273 16.2 µM | HOP-18 19.1 µM | XF498 17.5 µM

CN(C)C(=O)NCCN1CCCCCc2ccccc21
inactive: DU-145 > 100 µM | SR > 100 µM

CC1=C2C3OC(=O)C(C)C3CCC2(C)C=C/C1=N\c1ccccc1 (stereo not given)
inactive: DMS-273 > 100 µM | HOP-18 > 57.1 µM

O=C1c2ccccc2N(O)C1(c1ccccc1)C1CCCC=C1N1CCOCC1 (stereo not given)
inactive: DMS-273 > 100 µM | LXFL 529 68.5 µM | SR 28.4 µM

O=c1nc(NC(c2ccccc2)(c2ccccc2)c2ccccc2)ccn1CCCl
inactive: 786-0 18.1 µM | HOP-18 25.5 µM | LXFL 529 13.5 µM | RXF 631 27.3 µM | SR 20.3 µM | XF498 14.1 µM

CC(=O)NNc1nc(C)c(C(=O)NNC(=O)C(=O)Nc2ccc([N+](=O)[O-])cc2C#N)s1
inactive: 786-0 67.3 µM | DMS-273 > 100 µM | LXFL 529 44.3 µM | SR 67.1 µM | XF498 > 100 µM

CCOC(=O)/C=C/n1c2ccccc2c(=O)c2ccccc21
inactive: 786-0 > 100 µM | DMS-273 > 100 µM | LXFL 529 > 100 µM | SR > 100 µM | XF498 > 100 µM

O=[N+]([O-])c1ccc(N2N=C(c3ccc(NCc4nc5ccccc5[nH]4)cc3)CC2c2ccco2)cc1 (stereo not given)
inactive: 786-0 44 µM | DMS-273 21.2 µM | HOP-18 50.5 µM | LXFL 529 11.1 µM | SR 8.85 µM

ClCc1ccc2ccc3ccc(CCl)nc3c2n1
inactive: DMS-273 2.2 µM | HOP-18 2.65 µM | XF498 1.65 µM

O=C(/C=C/c1ccc(OCc2ccccc2)cc1)NCc1ccc(C(=O)NCc2ccccc2)cc1
inactive: 786-0 > 100 µM | BT-549 > 100 µM | DU-145 > 100 µM | SR > 100 µM

OC[C@H]1C[C@@H]2Cc3ccccc3N2N1
inactive: 786-0 > 100 µM | DU-145 > 100 µM | SR > 100 µM

CC1CC/C(=C\c2ccc(N(C)C)cc2)C2=C1C(c1ccc(N(C)C)cc1)NC(=S)N2 (stereo not given)
inactive: 786-0 > 100 µM | BT-549 > 100 µM | DU-145 > 100 µM

CC(=O)Nc1ccc(C(=O)NN2C(=O)C(Cl)/C2=C/c2ccco2)cc1 (stereo not given)
inactive: HOP-18 > 100 µM | LXFL 529 > 100 µM | SR > 100 µM

CN(CCO)Cc1ncccc1O
inactive: BT-549 > 100 µM | DU-145 > 100 µM | SR > 100 µM

CON(C)C(C#N)=C(C#N)C#N
inactive: DU-145 > 10 µM | SR > 10 µM

O=C(NCCCl)SCCO
inactive: 786-0 > 100 µM | DMS-273 > 100 µM | LXFL 529 > 100 µM | RXF 631 > 100 µM | SR > 100 µM

COc1cccc(OCC(=N/NC(=O)c2ccncc2)/N=C/c2ccncc2)c1
inactive: 786-0 > 100 µM | BT-549 > 100 µM | DU-145 > 100 µM

O=C1C(Cl)N(c2ccccc2[N+](=O)[O-])C1c1c[nH]c2ccccc12 (stereo not given)
inactive: LXFL 529 > 100 µM | SR > 100 µM | XF498 > 100 µM

CC(=O)c1c2c(cc3c1CC1(Cc4cc5c(cc4C1)C(=O)CCC5)C3)CCCC2 (stereo not given)
inactive: 786-0 5.66 µM | DU-145 20.9 µM | SR 2.48 µM
